Results on 20 molecules are retold here after article PMC5439695 (PLoS ONE, 2017).

Test [1] has as its system estrogen receptor (ER). Particulars: cited from earlier work; for AUC score in Judson 2015: ER antagonist, ToxCast chemicals only, ref Judson 2015; for ER antagonist AUC score: pathway-level model using all Tox21/ToxCast ER assays of 1812 ToxCast chemicals.
The test system of test [2] is HEK293 and HepG2 cell lines.
Test [3] has as its system HepG2 cells. Particulars: HepG2 glo.
In test [4] the test system is HepG2 cells. Put plainly: CellTox Green Cytotoxicity Assay (flor) in HepG2, HepG2[flor].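 As to hepg2 flor emax 0: percent activity versus DMSO-only wells with baseline rescaled to 0%.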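 As to hepg2 flor emax 40: percent activity versus DMSO-only wells with baseline rescaled to 0%.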 The test is classed as cell-based, human. The following applies: HepG2 flor.
Test [5] relates to HEK293 cells. The following applies: HEK293 glo.
Test [6] relates to HEK293 cells. Particulars: HEK293 flor.
Setting [7] is: POD potency, max over real-time cytotoxicity assays.
Setting [8] is: POD potency, median over real-time cytotoxicity assays.
[9] abbreviates: time point 8, given as negative log-scale values.
The mark [10] stands for this setting: time point 16, given as negative log-scale values.
Where [11] appears, read: time point 24, given as negative log-scale values.
Where [12] appears, read: time point 32, given as negative log-scale values.
Where [13] appears, read: time point 40, given as negative log-scale values.

Where a name gives a salt, the structure may show the parent alone. Read-outs that look alike come from different tables or passages of the source.

As for `OC(c1ccc(Cl)cc1)(c1cncnc1)c1ccccc1Cl` (centres unmarked) [Fenarimol], the “AUC score in Judson 2015” value in test [1] is recorded as 0.000907.
Consider `CC[C@H](c1ccc(O)cc1)[C@@H](CC)c1ccc(O)cc1` [meso-Hexestrol], for which the “AUC score in Judson 2015” value in test [1] is 0.
`CC(C)(C)c1cc(/C=C2\SC(N)=NC2=O)cc(C(C)(C)C)c1O` [Darbufelone mesylate]: in test [1], the “AUC score in Judson 2015” value is 0.
For `CCCCCCCCOC(=O)c1cc(O)c(O)c(O)c1` [octyl gallate], in test [1], the “AUC score in Judson 2015” value is recorded as 0.0768 and the “ER antagonist AUC score” value is reported as “higher than 0.01”.
Turning to `Clc1ccccc1C(c1ccccc1)(c1ccccc1)n1ccnc1` [Clotrimazole, reference compound], the “AUC score in Judson 2015” value in test [1] is listed as 0.00844.
For `CC(C)C1CCC(Cc2ccc(Cl)cc2)C1(O)Cn1cncn1` (centres unmarked) [Ipconazole], the “AUC score in Judson 2015” value in test [1] is recorded as 0.0166.
Regarding `CC(C)(C)c1ccc(O)c(C(C)(C)C)c1` [2,4-Di-tert-butylphenol], in test [1], the “AUC score in Judson 2015” value is recorded as 0.
Consider `CN[C@H]1CC[C@@H](c2ccc(Cl)c(Cl)c2)c2ccc(S(N)(=O)=O)cc21` [UK-373911], for which the “AUC score in Judson 2015” value in test [1] is 6.68e-8. For the same molecule, the “Cyto(realtime)_max” value in test [2] (setting [7]) is given as 5.12 log10(M)*-1. In addition, the “Cyto(realtime)_median” value in test [2] (setting [8]) is 4.70 log10(M)*-1.
As for `CCCCC(O)(Cn1cncn1)c1ccc(Cl)cc1Cl` (centres unmarked) [Hexaconazole], the “AUC score in Judson 2015” value in test [1] is 0.00822.
Dodecylphenol: in test [1], the “AUC score in Judson 2015” value is on record as 0. For the same molecule, the “Cyto(realtime)_max” value in test [2] (setting [7]) is 5.05 log10(M)*-1. The “Cyto(realtime)_median” value in test [2] (setting [8]) is listed as 4.56 log10(M)*-1.
`CC/C(=C(\c1ccccc1)c1ccc(OCCN(C)C)cc1)c1ccccc1` [Tamoxifen citrate]: the “AUC score in Judson 2015” value in test [1] is given as 0.546.
Regarding tetrabutyltin, in test [1], the “AUC score in Judson 2015” value is 0.0101 and the “ER antagonist AUC score” value is listed as “higher than 0.01”. In addition, in test [2], the “Cyto(realtime)_max” value is 5.64 log10(M)*-1 and the “Cyto(realtime)_median” value is recorded as 5.16 log10(M)*-1.
As to `CC(C)c1cccc(C(C)C)c1N1C(=O)c2ccc(O)cc2C1=O` [5HPP-33], the “AUC score in Judson 2015” value in test [1] is on record as 0. Moreover, the “Cyto(realtime)_max” value in test [2] (setting [7]) was 4.71 log10(M)*-1. In addition, the “Cyto(realtime)_median” value in test [2] (setting [8]) was 4.30 log10(M)*-1.
Turning to `C[C@@]1(c2ccc(Oc3ccccc3)cc2)OC(=O)N(Nc2ccccc2)C1=O` (racemic) [Famoxadone], the “AUC score in Judson 2015” value in test [1] is given as 0.000714.
On to `O=C(c1ccc(OCCN2CCCCC2)cc1)c1c(-c2ccc(O)cc2)sc2cc(O)ccc12` [Raloxifene hydrochloride], for which the “AUC score in Judson 2015” value in test [1] is reported as 0.671.
Turning to `CCCCCCCCCCCCOC(=O)c1cc(O)c(O)c(O)c1` [dodecyl gallate], in test [1], the “AUC score in Judson 2015” value is listed as 0.0773 and the “ER antagonist AUC score” value was “higher than 0.01”.
For `CC/C(=C(\c1ccc(O)cc1)c1ccc(OCCN(C)C)cc1)c1ccccc1` [4-Hydroxytamoxifen], the “AUC score in Judson 2015” value in test [1] is listed as 0.686.
On to `CCC(C)(C)c1ccc(O)c(C(C)(C)CC)c1` [2,4-Bis(2-methylbutan-2-yl)phenol], for which the “AUC score in Judson 2015” value in test [1] is recorded as 0.00113.
Regarding `O=C1C2CC=CCC2C(=O)N1SC(Cl)(Cl)Cl` (centres unmarked) [Captan], the “AUC score in Judson 2015” value in test [1] is 0.
In test [3], `CN(C)c1ccc(C(=C2C=CC(=[N+](C)C)C=C2)c2ccccc2)cc1.CN(C)c1ccc(C(=C2C=CC(=[N+](C)C)C=C2)c2ccccc2)cc1.O=C(O)C(=O)O.O=C([O-])C(=O)O.O=C([O-])C(=O)O` [Malachite green oxalate] gave a hepg2_glo_auc of 1.838 and a hepg2_glo_time of 0. Also, the hepg2_glo_bin entry in test [3] (kinetics bin) is “cv_16 (cv_16: 0 < time < 8)”. In test [3] (time point 0), this molecule yielded a hepg2_glo_emax_0 of 0, a hepg2_glo_pod_0 of -4.417 and a hepg2_glo_wauc_0 of 0. In test [3] (time point 8), this molecule registered a hepg2_glo_emax_8 of -63.2822, a hepg2_glo_pod_8 of -5.131 and a hepg2_glo_wauc_8 of 1.514. Also, the hepg2_glo_ec50_8 in test [3] (setting [9]) was -4.735. Further, in test [3] (time point 16), the hepg2_glo_emax_16 is -91.4856, the hepg2_glo_pod_16 is given as -5.607 and the hepg2_glo_wauc_16 is 1.892. In test [3] (setting [10]), this molecule showed a hepg2_glo_ec50_16 of -5.318. Further, in test [3] (time point 24), the hepg2_glo_emax_24 is -91.3465, the hepg2_glo_pod_24 was -5.6539 and the hepg2_glo_wauc_24 came out at 1.966. Also, the hepg2_glo_ec50_24 in test [3] (setting [11]) is reported as -5.521. In test [3] (time point 32), this molecule returned a hepg2_glo_emax_32 of -92.3669, a hepg2_glo_pod_32 of -5.816 and a hepg2_glo_wauc_32 of 2.064. In test [3] (setting [12]), this molecule showed a hepg2_glo_ec50_32 of -5.627. In test [3] (time point 40), this molecule came in with a hepg2_glo_emax_40 of -91.0249, a hepg2_glo_pod_40 of -5.846 and a hepg2_glo_wauc_40 of 2.087. Besides, the hepg2_glo_ec50_40 in test [3] (setting [13]) is recorded as -5.656. Besides, in test [4], the hepg2_flor_auc turned out to be 1.813 and the hepg2_flor_time was found to be 8. Moreover, in test [4] (kinetics bin), the hepg2_flor_bin entry is “cv_26 (cv_26: 8 < time < 16)”. For the same molecule, in test [4] (time point 0), the hepg2_flor_emax_0 is on record as 0, the hepg2_flor_pod_0 was -4.417 and the hepg2_flor_wauc_0 is 0. Further, in test [4] (time point 8), the hepg2_flor_emax_8 was 44.8674, the hepg2_flor_pod_8 is on record as -4.571 and the hepg2_flor_wauc_8 amounted to 0.868. This molecule showed a hepg2_flor_ec50_8 in test [4] (setting [9]) of -4.591. In addition, in test [4] (time point 16), the hepg2_flor_emax_16 is recorded as 142.047, the hepg2_flor_pod_16 is -5.554 and the hepg2_flor_wauc_16 is recorded as 1.871. Besides, the hepg2_flor_ec50_16 in test [4] (setting [10]) is recorded as -4.76. In test [4] (time point 24), this molecule showed a hepg2_flor_emax_24 of 168.072, a hepg2_flor_pod_24 of -5.707 and a hepg2_flor_wauc_24 of 2.035. The molecule further had a hepg2_flor_ec50_24 in test [4] (setting [11]) of -5.438. In test [4] (time point 32), the hepg2_flor_emax_32 is listed as 231.16, the hepg2_flor_pod_32 is recorded as -5.746 and the hepg2_flor_wauc_32 is given as 2.119. In test [4] (setting [12]), this molecule had a hepg2_flor_ec50_32 of -5.498. Also, in test [4] (time point 40), the hepg2_flor_emax_40 is reported as 275.23, the hepg2_flor_pod_40 is -6.016 and the hepg2_flor_wauc_40 is listed as 2.222. Further, in test [4] (setting [13]), the hepg2_flor_ec50_40 is listed as -5.565. In addition, in test [5], the hek293_glo_auc came out at 1.897 and the hek293_glo_time turned out to be 8. The hek293_glo_bin result in test [5] (kinetics bin) is recorded as “cv_26 (cv_26: 8 < time < 16)”. In test [5] (time point 0), this molecule came in with a hek293_glo_emax_0 of 0, a hek293_glo_pod_0 of -4.417 and a hek293_glo_wauc_0 of 0. In addition, in test [5] (time point 8), the hek293_glo_emax_8 is recorded as -47.964, the hek293_glo_pod_8 is on record as -5.267 and the hek293_glo_wauc_8 worked out at 1.621. The molecule also displayed a hek293_glo_ec50_8 in test [5] (setting [9]) of -5.275. In test [5] (time point 16), this molecule gave a hek293_glo_emax_16 of -74.3913, a hek293_glo_pod_16 of -6.896 and a hek293_glo_wauc_16 of 2.239. Besides, the hek293_glo_ec50_16 in test [5] (setting [10]) is -5.71. Also, in test [5] (time point 24), the hek293_glo_emax_24 is listed as -84.5759, the hek293_glo_pod_24 was -6.8943 and the hek293_glo_wauc_24 was determined as 2.321. In test [5] (setting [11]), this molecule gave a hek293_glo_ec50_24 of -6.073. In test [5] (time point 32), this molecule displayed a hek293_glo_emax_32 of -91.2313, a hek293_glo_pod_32 of -6.927 and a hek293_glo_wauc_32 of 2.36. For the same molecule, the hek293_glo_ec50_32 in test [5] (setting [12]) is -6.025. In addition, in test [5] (time point 40), the hek293_glo_emax_40 is listed as -94.0423, the hek293_glo_pod_40 is recorded as -6.941 and the hek293_glo_wauc_40 is 2.382. Further, in test [5] (setting [13]), the hek293_glo_ec50_40 is -6.071. Further, in test [2] (any activity in any time point/assay), the information is 1. In test [6], this molecule came in with a hek293_flor_auc of 1.491 and a hek293_flor_time of 24. The hek293_flor_bin entry in test [6] (kinetics bin) is listed as “cv_46 (cv_46: 24 < time < 32)”. In test [6] (time point 0), this molecule had a hek293_flor_emax_0 of 0, a hek293_flor_pod_0 of -4.417 and a hek293_flor_wauc_0 of 0. Besides, in test [6] (time point 8), the hek293_flor_emax_8 came out at 0, the hek293_flor_pod_8 is -4.417 and the hek293_flor_wauc_8 is on record as 0. In test [6] (time point 16), this molecule yielded a hek293_flor_emax_16 of 25.2441, a hek293_flor_pod_16 of -4.42 and a hek293_flor_wauc_16 of 0.5325. In test [6] (setting [10]), the hek293_flor_ec50_16 is -4.591. Moreover, in test [6] (time point 24), the hek293_flor_emax_24 is 72.6532, the hek293_flor_pod_24 is on record as -4.806 and the hek293_flor_wauc_24 stood at 1.057. In test [6] (setting [11]), this molecule registered a hek293_flor_ec50_24 of -4.702. In addition, in test [6] (time point 32), the hek293_flor_emax_32 is recorded as 99.3082, the hek293_flor_pod_32 is given as -5.521 and the hek293_flor_wauc_32 was 1.407. In test [6] (setting [12]), this molecule yielded a hek293_flor_ec50_32 of -4.895. In test [6] (time point 40), this molecule gave a hek293_flor_emax_40 of 135.684, a hek293_flor_pod_40 of -5.642 and a hek293_flor_wauc_40 of 1.5. The same molecule had a hek293_flor_ec50_40 in test [6] (setting [13]) of -5.028.
